The values that follow come from ChEMBL document CHEMBL4400575, “PROTAC Molecules for the Treatment of Autoimmune Disorders” (ACS Med Chem Lett, 2019).

Where only a bound is given, the exact number is not on record here.

Sequence of Protein cereblon (Q96SW2 whole entry, the tested form may be a part): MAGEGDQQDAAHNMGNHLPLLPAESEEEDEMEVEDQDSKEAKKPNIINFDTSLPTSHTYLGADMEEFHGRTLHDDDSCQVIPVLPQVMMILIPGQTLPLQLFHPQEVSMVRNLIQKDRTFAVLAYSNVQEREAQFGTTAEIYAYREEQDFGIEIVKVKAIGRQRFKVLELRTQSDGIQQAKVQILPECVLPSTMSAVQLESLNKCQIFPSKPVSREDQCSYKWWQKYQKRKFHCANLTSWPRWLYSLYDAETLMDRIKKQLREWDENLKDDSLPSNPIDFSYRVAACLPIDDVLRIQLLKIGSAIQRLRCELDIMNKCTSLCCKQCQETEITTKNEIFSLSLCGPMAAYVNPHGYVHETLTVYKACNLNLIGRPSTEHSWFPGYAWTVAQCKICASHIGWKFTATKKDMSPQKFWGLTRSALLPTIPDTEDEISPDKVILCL

The experiment concerns the target Protein cereblon (Homo sapiens, UniProt Q96SW2). The experiment is described as follows: Displacement of (-)-thalidomide-alexa fluor/pomalidomide-fluorescein conjugated probe from […] fused CRBN (unknown origin) measured after 60 mins by fluorescence polarization assay. (Fluorescence polarisation rises when a labelled molecule tumbles more slowly, as on binding a larger partner.)
As to `CC(=O)CCc1ccc(OC2CCC(=O)NC2=O)cc1` (stereo not drawn), the Kd (as a rule, the concentration at which binding is half-saturated) was no more than 10 µM.

`Cc1nnc2n1-c1ccc(-c3cnn(CCCCCCN4CCN(c5ccc(NC6CCC(=O)NC6=O)cc5)CC4)c3)cc1C(c1ccc(Cl)cc1)=NC21CC1` (stereo not drawn) returned a Kd of no more than 10 µM.

In turn, `O=C1CCC(Nc2ccccc2N2CCOCC2)C(=O)N1` (stereo not drawn) gave a Kd of 10 to 50 µM.

On to `CC(C)(C)OC(=O)N1CCN(c2ccc(OC3CCC(=O)NC3=O)cc2)CC1` (stereo not drawn), for which the Kd was no more than 10 µM.

On to `Cc1sc2c(c1C)C(c1ccc(Cl)cc1)=N[C@@H](CC(=O)NCCCCCCCCN1CCN(c3ccc(NC4CCC(=O)NC4=O)cc3)CC1)c1nnc(C)n1-2` (stereo partly drawn), for which the equilibrium dissociation constant (Kd) is no more than 10 µM.

On to `N#Cc1ccc(-c2ccc(OC3CCC(=O)NC3=O)cc2)cc1` (stereo not drawn), for which the Kd is no more than 10 µM.

With `CN1CCN(c2ccc(NC3CCC(=O)NC3=O)cc2)CC1` (stereo not drawn), the Kd is no more than 10 µM.

On to `COc1cccc(N(C)C2CCC(=O)NC2=O)c1` (stereo not drawn), for which the Kd is no more than 10 µM.
